Measurements as given in patent US11911521B2, “Antibacterial nanofiber” (UNIVERSITY OF MANITOBA, priority 2017, dated 2024).

How the values were obtained:
Type in all cases: cell-based
[1] = test system: ATCC-PCS-201 neonatal human dermal fibroblast; experiment: In vitro cytotoxicity assay (MTT) on fibroblast cells; details: after 24 h of contact, free BTAC at 34 mg/L
Procedure: An in vitro cytotoxicity assay was conducted on fibroblast cells (ATCC-PCS-201 neonatal human dermal fibroblast) to evaluate the effect of drug-loaded nanofibers. Nanofibers were cut in to the same shape and weighted to 4 mg (triplicate). They were pre-soaked in 1 mL of ethanol for 10 min. Samples were exposed to UV light for 45 min (each side). Fibroblast cells were cultured in 24 well-plates at density of 1×10^5 (cell/mL). After reaching to 90% confluence, 2 mL of fibroblast culture medium was added to each of the wells and the dressings. Afterwards, the cells were incubated at 37° C. for 24 h. Cell viability was determined using MTT assay after removal of dressings. Each well received 500 μL of 1:10 (v/v) MTT and fibroblast medium solution. Subsequently, after 2 h incubation at 37° C., the culture medium with the MTT solution were aspirated and replaced by 500 μL DMSO. Finally, 100 μL aliquots from each well (in triplicate) were transferred to 96-well plates and viability of cells was evaluated using spectrophotometer at 570 nm wavelength (PowerWave™ XS2 Microplate Spectrophotometer, BioTek Instruments Inc., Canada).

[2] = test system: Escherichia coli (E-coli—ATCC 25922); experiment: Antibacterial test by colony counting method, E. coli; details: for logarithm reduction of bacteria / percentage reduction of bacteria: E. coli ~8 Log CFU/mL
Procedure: (§1) The antibacterial activity of the nanofiber mats was tested by colony counting method against Staphylococcus aureus (S. aureus) and E. coli, which are commonly found on burn wounds. For the antibacterial studies, logarithmic-phase cultures were prepared by initially suspending several colonies in phosphate buffered saline (PBS, 0.1 M, pH 7.4) at a density equivalent to a 0.5 McFarland standard of 1×10^8 colony forming units (CFU) mL^−1 and then diluted 100 times to 1×10^6 CFU mL^−1. 15 μL of the diluted E-coli and S. aureus suspension was further diluted into 45 mL cation-supplemented MuellerHinton (MH) broth and TSB, respectively. After culturing in the incubator at 37° C. for overnight, the concentration of bacteria went up to 10^8 CFU mL^−1. 2 mL of bacteria suspension was added to 4 mg of nanofibers and incubated. At the predetermined contact times, 150 μL of bacteria culture was taken from the flask, neutralized, and decimal serial dilutions with PBS were repeated with each initial sample. 30 μL of the diluted sample was then spread onto four zones of a Tryptone Soya agar plate (CM 0131, OXOID). After incubation of the plates at 37° C. for 18 h, the number of viable bacteria (colonies) was counted manually for control (A, bacteria suspension without sample) and BTAC-loaded nanofibers (B). Bacteria reduction was reported as percentage and Log 10. The percentage reduction of bacteria (%)=(A−B)/A×100; and logarithm reduction=log(A/B).

[3] = test system: Staphylococcus aureus (S. aureus—ATCC 29213); experiment: Antibacterial test by colony counting method, S. aureus; details: for logarithm reduction of bacteria / percentage reduction of bacteria: S. aureus ~8 Log CFU/mL
Procedure: as §1

CCCCCCCCCCCCCC[N+](C)(C)Cc1ccccc1 [BTAC, benzyl dimethyl tetradecyl ammonium chloride]
fibroblast cell viability [1]: 55.2±4.0 | logarithm reduction of bacteria ([2]; contact time 5 min): 1.3 ± 0.0 Log10 | percentage reduction of bacteria ([2]; contact time 5 min): 95.3 ± 0.3% | logarithm reduction of bacteria ([2]; contact time 10 min): 1.4 ± 0.1 Log10 | percentage reduction of bacteria ([2]; contact time 10 min): 96.0 ± 0.2% | logarithm reduction of bacteria ([2]; contact time 20 min): 1.9 ± 0.1 Log10 | percentage reduction of bacteria ([2]; contact time 20 min): 98.8 ± 0.5% | logarithm reduction of bacteria ([2]; contact time 30 min): 8.9 Log10 | percentage reduction of bacteria ([2]; contact time 30 min): 100.0% | time to 100% bacteria inhibition ([2]; against E. coli): < 60 min | logarithm reduction of bacteria ([3]; contact time 5 min): 1.4 ± 0.2 Log10 | percentage reduction of bacteria ([3]; contact time 5 min): 96.1 ± 0.2% | logarithm reduction of bacteria ([3]; contact time 10 min): 1.8 ± 0.3 Log10 | percentage reduction of bacteria ([3]; contact time 10 min): 98.5 ± 0.9% | logarithm reduction of bacteria ([3]; contact time 20 min): 8.9 Log10 | percentage reduction of bacteria ([3]; contact time 20 min): 100.0% | time to 100% bacteria inhibition ([3]; against S. aureus): < 60 min
